Data on five compounds can be found in ChEMBL document CHEMBL1138659 (J Med Chem, 2004).

SMILES strings stand for the structures. A value given as a limit tells only on which side of the number the result lay.

The target in series [1] is Protein kinase C beta type (Homo sapiens, UniProt P05771). The series can be described thus: Inhibition of human Protein kinase C beta 2.
For series [2], the species on record is Rattus norvegicus. The series can be described thus: Threshold minimal effective dose in rats. Type of series: functional.
For series [3], the target named is T1, Glycogen synthase kinase-3 beta (Homo sapiens, UniProt P49841). The series can be described thus: Inhibition of Glycogen synthase kinase-3 beta dependent Tau protein serine-396 phosphorylation in human SY5Y cells. It is filed as functional, cell-based.
Series [4] has as its system Rattus norvegicus. The series can be described thus: In vivo insulin (10 units) response in rats at 10 mg/kg dose. Type of series: functional.
Series [5] deals with Cyclin-dependent kinase 4 (Homo sapiens, UniProt P11802). The series can be described thus: Inhibition of human Cyclin-dependent kinase 4.
For series [6], the target named is cAMP-dependent protein kinase catalytic subunit beta (Homo sapiens, UniProt P22694). The series can be described thus: Inhibition of human Protein kinase A beta.
Series [7] deals with RAC-alpha serine/threonine-protein kinase (Homo sapiens, UniProt P31749). The series can be described thus: Inhibition of human Akt1.
Series [8] concerns the target TGF-beta receptor type-2 (Homo sapiens, UniProt P37173). The series can be described thus: Inhibition of human TGF-beta type II receptor.
Series [9] deals with Rattus norvegicus. The series can be described thus: In vivo glucose reduction in rats at 10 mg/kg dose. Type of series: functional. Also noted: scale not given: the % may be the effect or the level left.
Series [10] addresses T1, Glycogen synthase kinase-3 beta.
Description: Inhibition of human Glycogen synthase kinase-3 beta
The target in series [11] is MAP kinase p38 (Homo sapiens, UniProt O15264+Q15759+Q16539+P53778). The series can be described thus: Inhibition of human Mitogen-activated protein kinase p38.
Series [12] concerns the target Cyclin-dependent kinase 2 (Homo sapiens, UniProt P24941). The series can be described thus: Inhibition of human Cyclin-dependent kinase 2.
In series [13] the target is Vascular endothelial growth factor receptor 2 (Homo sapiens, UniProt P35968). The series can be described thus: Inhibition of human Vascular endothelial growth factor receptor 2.
In series [14] the target is Mitogen-activated protein kinase kinase kinase 20 (Homo sapiens, UniProt Q9NYL2).
A short description of series [15]: Oral bioavailability. It is filed as ADME, organism-based. The conditions noted are these: rat, in vivo.
Series [16] can be described thus: Half life in oral, hours. It is filed as ADME, organism-based. The conditions noted are these: rat, in vivo.
The nature of series [17]: Compound was tested for oral AUC at 0 to 24 hours. Type of series: ADME. Also noted: time < 24 hr, route oral. The conditions noted are these: rat.
A short description of series [18]: Half life in in vivo, hours. Type of series: ADME, organism-based. The conditions noted are these: rat.
Series [19] in a line: Compound was tested for in vivo clearance. Type of series: ADME, organism-based. Conditions: rat.
Series [20] in a line: Compound was tested for volume distribution. It is filed as ADME. Conditions: rat; read-out: Volume distribution.

Sequence of TGF-beta receptor type-2 (P37173 whole entry): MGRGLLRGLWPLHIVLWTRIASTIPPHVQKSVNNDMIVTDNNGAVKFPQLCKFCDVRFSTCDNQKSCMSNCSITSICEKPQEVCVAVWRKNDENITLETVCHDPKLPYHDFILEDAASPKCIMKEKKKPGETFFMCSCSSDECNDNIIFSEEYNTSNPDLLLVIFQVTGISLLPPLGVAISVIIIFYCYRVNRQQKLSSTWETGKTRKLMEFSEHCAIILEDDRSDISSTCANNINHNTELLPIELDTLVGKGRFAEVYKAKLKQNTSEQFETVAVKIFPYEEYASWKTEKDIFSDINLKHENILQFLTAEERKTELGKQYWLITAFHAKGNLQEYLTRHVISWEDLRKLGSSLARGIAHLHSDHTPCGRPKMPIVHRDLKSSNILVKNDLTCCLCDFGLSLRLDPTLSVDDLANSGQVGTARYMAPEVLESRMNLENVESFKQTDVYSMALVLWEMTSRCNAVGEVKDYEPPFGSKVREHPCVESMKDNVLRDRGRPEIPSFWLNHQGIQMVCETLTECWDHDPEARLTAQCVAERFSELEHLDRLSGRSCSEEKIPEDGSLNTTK
T1 sequence (P49841 whole entry): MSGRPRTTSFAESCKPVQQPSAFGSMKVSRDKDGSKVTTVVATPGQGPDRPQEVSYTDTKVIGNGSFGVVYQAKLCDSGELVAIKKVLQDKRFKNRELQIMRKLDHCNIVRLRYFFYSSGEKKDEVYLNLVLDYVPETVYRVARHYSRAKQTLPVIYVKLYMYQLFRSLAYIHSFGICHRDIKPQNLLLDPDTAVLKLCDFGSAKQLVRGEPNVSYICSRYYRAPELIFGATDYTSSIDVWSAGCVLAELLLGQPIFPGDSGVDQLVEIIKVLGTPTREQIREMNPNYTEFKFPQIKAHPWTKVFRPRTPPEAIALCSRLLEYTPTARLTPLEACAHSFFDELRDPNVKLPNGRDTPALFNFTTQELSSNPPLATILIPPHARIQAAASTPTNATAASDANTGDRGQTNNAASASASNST
Sequence of Cyclin-dependent kinase 4 (P11802 whole entry): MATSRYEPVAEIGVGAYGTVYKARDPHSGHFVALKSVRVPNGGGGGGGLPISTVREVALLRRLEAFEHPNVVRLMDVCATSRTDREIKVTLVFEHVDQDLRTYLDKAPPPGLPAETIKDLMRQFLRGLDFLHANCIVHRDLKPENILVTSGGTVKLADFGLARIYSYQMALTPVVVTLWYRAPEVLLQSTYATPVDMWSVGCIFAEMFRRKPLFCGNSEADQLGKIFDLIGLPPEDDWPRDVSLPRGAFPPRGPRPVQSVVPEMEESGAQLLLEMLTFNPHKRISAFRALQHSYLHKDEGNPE
Sequence of Vascular endothelial growth factor receptor 2 (P35968 whole entry): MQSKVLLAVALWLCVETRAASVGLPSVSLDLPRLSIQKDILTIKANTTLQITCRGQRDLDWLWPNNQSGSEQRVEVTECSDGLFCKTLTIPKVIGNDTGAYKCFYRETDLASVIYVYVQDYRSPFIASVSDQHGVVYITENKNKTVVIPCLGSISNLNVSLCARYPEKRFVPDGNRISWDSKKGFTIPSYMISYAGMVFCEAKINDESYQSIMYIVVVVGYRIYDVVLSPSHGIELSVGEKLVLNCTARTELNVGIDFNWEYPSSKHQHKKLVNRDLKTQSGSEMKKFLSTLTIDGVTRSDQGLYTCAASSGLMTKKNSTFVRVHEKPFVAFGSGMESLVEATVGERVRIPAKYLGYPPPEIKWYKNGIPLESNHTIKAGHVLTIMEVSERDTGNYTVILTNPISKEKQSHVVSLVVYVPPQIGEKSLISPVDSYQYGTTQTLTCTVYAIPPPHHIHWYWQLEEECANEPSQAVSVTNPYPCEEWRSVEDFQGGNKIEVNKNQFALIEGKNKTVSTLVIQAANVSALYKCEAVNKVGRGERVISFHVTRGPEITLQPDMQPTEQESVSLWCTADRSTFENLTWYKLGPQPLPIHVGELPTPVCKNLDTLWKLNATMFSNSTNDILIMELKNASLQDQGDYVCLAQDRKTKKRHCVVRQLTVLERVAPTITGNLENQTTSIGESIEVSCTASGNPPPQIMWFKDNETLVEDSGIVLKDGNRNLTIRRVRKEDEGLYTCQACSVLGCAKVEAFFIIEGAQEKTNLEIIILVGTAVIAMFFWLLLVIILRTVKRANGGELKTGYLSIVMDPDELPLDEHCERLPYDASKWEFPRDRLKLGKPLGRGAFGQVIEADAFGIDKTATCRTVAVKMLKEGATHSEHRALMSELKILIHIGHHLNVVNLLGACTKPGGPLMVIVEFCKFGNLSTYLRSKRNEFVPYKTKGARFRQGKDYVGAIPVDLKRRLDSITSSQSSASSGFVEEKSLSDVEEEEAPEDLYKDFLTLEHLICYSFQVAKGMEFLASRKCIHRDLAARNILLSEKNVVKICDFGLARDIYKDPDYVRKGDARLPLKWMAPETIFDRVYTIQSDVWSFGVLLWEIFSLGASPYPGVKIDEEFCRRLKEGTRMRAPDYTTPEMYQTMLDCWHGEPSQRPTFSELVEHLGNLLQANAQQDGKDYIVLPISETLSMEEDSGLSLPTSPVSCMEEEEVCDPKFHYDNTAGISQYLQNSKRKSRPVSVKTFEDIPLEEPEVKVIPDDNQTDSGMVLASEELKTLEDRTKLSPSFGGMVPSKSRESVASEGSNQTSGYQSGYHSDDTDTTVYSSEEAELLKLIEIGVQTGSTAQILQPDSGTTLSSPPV
Sequence of RAC-alpha serine/threonine-protein kinase (P31749 whole entry): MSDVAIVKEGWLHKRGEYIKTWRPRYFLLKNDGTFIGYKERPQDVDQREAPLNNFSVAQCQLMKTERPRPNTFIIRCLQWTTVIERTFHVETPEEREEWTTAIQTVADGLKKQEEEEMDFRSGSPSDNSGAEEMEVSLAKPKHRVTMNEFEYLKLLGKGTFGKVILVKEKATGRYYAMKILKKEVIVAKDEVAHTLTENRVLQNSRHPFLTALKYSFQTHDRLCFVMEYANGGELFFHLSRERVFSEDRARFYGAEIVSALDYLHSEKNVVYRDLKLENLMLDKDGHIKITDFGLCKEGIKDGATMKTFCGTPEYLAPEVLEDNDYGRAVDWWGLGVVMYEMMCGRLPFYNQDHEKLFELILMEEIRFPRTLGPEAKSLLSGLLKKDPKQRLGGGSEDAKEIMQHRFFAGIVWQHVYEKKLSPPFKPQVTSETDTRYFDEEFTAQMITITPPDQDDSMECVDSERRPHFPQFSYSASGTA
Sequence of Protein kinase C beta type (P05771 whole entry): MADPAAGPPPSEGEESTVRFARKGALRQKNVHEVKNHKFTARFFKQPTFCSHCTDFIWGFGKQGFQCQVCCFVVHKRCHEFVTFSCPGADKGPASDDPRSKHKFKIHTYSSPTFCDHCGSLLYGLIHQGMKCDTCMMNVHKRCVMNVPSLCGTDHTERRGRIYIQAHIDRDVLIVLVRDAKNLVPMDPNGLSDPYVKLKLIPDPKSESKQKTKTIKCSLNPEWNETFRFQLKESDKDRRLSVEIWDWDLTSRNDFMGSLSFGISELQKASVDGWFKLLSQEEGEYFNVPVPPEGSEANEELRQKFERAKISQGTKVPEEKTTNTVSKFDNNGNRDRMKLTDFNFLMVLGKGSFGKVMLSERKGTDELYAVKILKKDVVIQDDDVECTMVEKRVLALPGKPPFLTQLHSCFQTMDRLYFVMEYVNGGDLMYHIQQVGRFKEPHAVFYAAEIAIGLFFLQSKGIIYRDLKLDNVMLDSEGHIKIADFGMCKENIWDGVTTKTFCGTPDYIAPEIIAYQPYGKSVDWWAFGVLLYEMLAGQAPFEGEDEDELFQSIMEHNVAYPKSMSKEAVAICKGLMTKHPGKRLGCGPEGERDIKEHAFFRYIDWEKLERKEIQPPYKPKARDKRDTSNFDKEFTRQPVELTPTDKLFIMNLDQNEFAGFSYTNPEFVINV
Sequence of Mitogen-activated protein kinase kinase kinase 20 (Q9NYL2 whole entry): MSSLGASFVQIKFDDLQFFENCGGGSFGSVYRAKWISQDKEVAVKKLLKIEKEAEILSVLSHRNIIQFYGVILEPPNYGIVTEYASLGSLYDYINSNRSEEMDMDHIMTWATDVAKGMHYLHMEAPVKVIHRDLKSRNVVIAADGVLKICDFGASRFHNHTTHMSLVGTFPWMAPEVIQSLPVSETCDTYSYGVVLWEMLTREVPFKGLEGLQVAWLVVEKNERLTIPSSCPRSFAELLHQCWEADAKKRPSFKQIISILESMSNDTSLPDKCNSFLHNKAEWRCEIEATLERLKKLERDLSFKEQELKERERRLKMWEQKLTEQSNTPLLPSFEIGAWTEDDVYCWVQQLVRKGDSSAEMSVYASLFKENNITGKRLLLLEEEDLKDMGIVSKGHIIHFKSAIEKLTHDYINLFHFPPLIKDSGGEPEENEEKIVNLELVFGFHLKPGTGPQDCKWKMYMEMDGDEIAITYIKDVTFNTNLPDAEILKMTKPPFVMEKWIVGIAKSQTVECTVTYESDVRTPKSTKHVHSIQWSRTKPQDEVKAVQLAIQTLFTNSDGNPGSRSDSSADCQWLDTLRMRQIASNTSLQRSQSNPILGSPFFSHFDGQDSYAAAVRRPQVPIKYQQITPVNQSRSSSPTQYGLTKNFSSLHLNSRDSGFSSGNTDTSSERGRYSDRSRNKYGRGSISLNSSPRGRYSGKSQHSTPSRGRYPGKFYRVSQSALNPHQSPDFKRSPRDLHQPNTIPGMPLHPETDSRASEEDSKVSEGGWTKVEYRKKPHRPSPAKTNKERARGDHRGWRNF

By IC50 is commonly meant the concentration needed to halve the response being measured. For the compound `O=C1NC(=O)C(c2cnc3ccccn23)=C1c1cn2c3c(cccc13)CN(C(=O)N1CCOCC1)CC2`, the IC50 in series [1] is 1100 nM; in series [3] it was 2.6 nM; in series [5], 1700 nM; in series [6], over 20 µM; in series [7] it was over 20 µM; in [8] it was 2000 nM. The same compound showed an IC50 in series [10] of 1.3 nM. Besides, the TMED in [2] worked out at 1.44 mg/kg. Also, the Response in series [4] turned out to be 119%. The Activity in series [9] turned out to be 78%.
Consider `O=C1NC(=O)C(c2cnc3ccccn23)=C1c1cn2c3c(cccc13)CN(C(=O)N1CCCCC1)CC2`, for which the IC50 is 560 nM in [1]; 1.6 nM in series [3]; over 20 µM in series [11]; 5.4 µM in [12]; over 20 µM in series [13]; 4800 nM in [5]. For the same compound, the IC50 was over 20 µM in series [7], 3100 nM in series [8] and 2 nM in series [10]. Moreover, the TMED in series [2] was 2.22 mg/kg. This compound registered a Response in [4] of 124%. In series [9], the Activity turned out to be 69%.
Consider `CN(C)C(=O)N1CCn2cc(C3=C(c4cnc5ccccn45)C(=O)NC3=O)c3cccc(c32)C1`, for which the IC50 in series [1] was 1000 nM; in [14] it was over 20 µM; in series [3], 12 nM; in series [11], over 20 µM; in series [12] it was 2.1 µM; in series [13], over 20 µM. Moreover, the IC50 in series [5] was 1500 nM; in [6], over 20 µM; in series [7] it was over 20 µM; in series [8], over 20000 nM; in series [10] it was 1.6 nM. The compound also came in with a Response in [4] of 104%. In series [9], this compound returned an Activity of 53%.
Consider `CC(C)OC(=O)N1CCn2cc(C3=C(c4cnc5ccccn45)C(=O)NC3=O)c3cccc(c32)C1`, for which the IC50 in [1] was 800 nM; in series [14], over 20 µM; in [3], 15 nM; in series [12], 3.4 µM; in series [13], over 20 µM; in [5], 3300 nM. Moreover, the IC50 in series [6] is over 20 µM; in series [7], over 20 µM; in series [8] it was over 20000 nM; in series [10] it was 1.3 nM. Further, the TMED in series [2] amounted to 4.27 mg/kg. Also, the Response in [4] was 105%. The same compound had an Activity in series [9] of 58%.
Usually bioavailability stands for dose-corrected exposure relative to a reference, in per cent. What is called half-life is the time in which the quantity being followed falls by half. Usually AUC stands for concentration integrated over time. By clearance is commonly meant a measure of how efficiently the substance is removed, as volume per time. The compound `O=C1NC(=O)C(c2cnc3ccccn23)=C1c1cn2c3c(cc(F)cc13)CN(C(=O)N1CCCCC1)CC2` [LY-2090314] had a bioavailability in series [15] of 23%. Besides, the IC50 is 420 nM in [1]; 0.7 nM in series [3]; 1800 nM in series [5]; over 20 µM in [6]; over 20 µM in [7]; 1200 nM in series [8]. The IC50 in series [10] was determined as 1.1 nM. In series [2], the TMED stood at 1.5 mg/kg. In [4], this compound showed a Response of 124%. The figures for the half-life in series [16] and in series [18] were 168 min and 66 min, respectively. This compound yielded an AUC in [17] of 3550 ng·h/mL. In series [19], this compound had a clearance of 12 mL/min/kg. This compound displayed an Activity in [9] of 61%. For the same compound, in series [20], the Vd turned out to be 1 L.
